Where “and” joins values, the source holds several entries; their conditions need not be identical. Equal values may be shown once.
These compounds were tested against CDK2 (human) (UniProt P24941) (assay: Enzyme Assay).

IC50 | Compound
5.4 nM | N[C@H]1CC[C@H](Nc2nc(Nc3ccccc3)c3ncn(C4CCCC4)c3n2)CC1
670 nM and 220 nM and 510 nM | N[C@H]1CC[C@H](Nc2nc(NC3CCN(Cc4cc(F)ccc4F)CC3)c3ncn(C4CCCC4)c3n2)CC1
140 nM and 300 nM and 340 nM | COc1cccc(CN2CCC(Nc3nc(N[C@H]4CC[C@H](N)CC4)nc4c3ncn4C3CCCC3)CC2)c1
240 nM and 110 nM and 80 nM | COc1ccccc1CN1CCC(Nc2nc(N[C@H]3CC[C@H](N)CC3)nc3c2ncn3C2CCCC2)CC1
120 nM and 320 nM | Cc1ccc(CN2CCC(Nc3nc(N[C@H]4CC[C@H](N)CC4)nc4c3ncn4C3CCCC3)CC2)cc1Cl
170 nM and 230 nM | Cc1ccc(CN2CCC(Nc3nc(N[C@H]4CC[C@H](N)CC4)nc4c3ncn4C3CCCC3)CC2)cc1
1700 nM | N[C@H]1CC[C@H](Nc2nc(NC3CCN(Cc4ccc(F)cc4)CC3)c3ncn(C4CCCC4)c3n2)CC1
